These results are taken from patent US12428399B2, “Non-hygroscopic crystalline salts of a pyrazole compound, and pharmaceutical compositions and use thereof” (Yissum Research Development Company of the Hebrew …, priority 2019, dated 2025).

Structures can show the parent of a compound that is named as a salt. Where two headings read alike, the source gives them in different places.

Data set [1] in a line: Dynamic vapor sorption (DVS) analysis of salts. Format: physicochemical. To be noted: for loss upon drying at 5% RH / gain from 5 to 95% RH / loss from 95 to 5% RH: DVS isotherm graph; for gain from 5 to 95% RH: adsorption cycle; for loss from 95 to 5% RH: desorption cycle. The procedure: The crystalline adipate, benzoate, and tosylate salts were characterized with XRPD, DSC, TGA, and DVS. The DVS analyses were carried out using TA Instruments Q5000 Dynamic Vapor Sorption analyzer. The instrument was calibrated with standard weights and a sodium bromide standard for humidity.

A short description of data set [2]: Solubility by aliquot addition of test solvent with visual inspection. The data set is classed as physicochemical. To be noted: solution from solubility test. The source says:
Whether dissolution had occurred was judged by visual inspection after addition of each solvent aliquot.

The nature of data set [3]: Bulk density of the ditosylate salt. The data set is classed as physicochemical.
Data set [4] has as its system acute myeloid leukemia (AML). To be noted: AML mouse models and human-patient-derived xenograph mouse models; cited from earlier work.
The test system of data set [5] is Ser 45 β-catenin phosphorylation; p53 and β-catenin protein expression. To be noted: cited from earlier work.
A further data set relates to Myc, MDM2, and MCL1. To be noted: cited from earlier work.
Another data set addresses CK1α (Homo sapiens, UniProt P48729). To be noted: cited from earlier work.
Where [6] appears, read: indicated by DVS isotherm graph.

Sequence of CK1α (P48729 whole entry): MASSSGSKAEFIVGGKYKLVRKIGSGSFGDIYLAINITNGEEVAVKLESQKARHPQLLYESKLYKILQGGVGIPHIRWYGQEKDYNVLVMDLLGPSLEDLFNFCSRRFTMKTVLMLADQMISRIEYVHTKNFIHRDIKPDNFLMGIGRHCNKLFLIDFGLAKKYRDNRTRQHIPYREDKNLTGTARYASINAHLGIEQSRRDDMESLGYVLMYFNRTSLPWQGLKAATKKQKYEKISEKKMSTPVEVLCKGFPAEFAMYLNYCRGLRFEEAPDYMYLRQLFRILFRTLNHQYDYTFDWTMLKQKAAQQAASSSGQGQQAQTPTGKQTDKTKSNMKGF

As to `Cn1ncc(-c2nc(NC3CCC(N)CC3)ncc2Cl)c1CC1CC1` (stereo not drawn) [benzoate salt, (1r,4r)-N^1-(5-chloro-4-(5-(cyclopropylmethyl)-1-methyl-1H-pyrazol-4-yl)pyrimidin-2-yl)cyclohexane-1,4-diamine], in data set [1], the “loss upon drying at 5% RH” value amounted to 0.02%, the “gain from 5 to 95% RH” value was determined as 1.20% and the “loss from 95 to 5% RH” value came to 1.30%. In data set [2] (listed as Benzoate), the “pH of Solution” value was 4.31.
As for `Cn1ncc(-c2nc(NC3CCC(N)CC3)ncc2Cl)c1CC1CC1` (stereo not drawn) [ditosylate salt, (1r,4r)-N^1-(5-chloro-4-(5-(cyclopropylmethyl)-1-methyl-1H-pyrazol-4-yl)pyrimidin-2-yl)cyclohexane-1,4-diamine], the hygroscopicity entry in data set [1] (setting [6]) is on record as “not hygroscopic”. Besides, the “pH of Solution” value in data set [2] stood at 5.82. Moreover, the bulk density in data set [3] came to 0.377 g/mL. Also, for the setting “25° C./60% RH, 6-Month”, the “Assay by HPLC (as free base)” value was found to be 100.5 % w/w, the “Purity by HPLC” value was 99.8 % area, the “Water contectnt by Karl Fisher” value came to 0.41 % w/w and the “pTSA content by HPLC” value is reported as 48.6 % w/w. Also, under “25° C./60% RH, Initial”, the “Assay by HPLC (as free base)” value is 100.5 % w/w, the “Purity by HPLC” value was found to be 99.8 % area, the “Water contectnt by Karl Fisher” value worked out at 0.41 % w/w and the “pTSA content by HPLC” value was determined as 49.9 % w/w. Moreover, for the setting “40° C./75% RH, 6-Month”, the “Assay by HPLC (as free base)” value is recorded as 100.3 % w/w, the “Purity by HPLC” value was determined as 99.8 % area, the “Water contectnt by Karl Fisher” value was found to be 0.58 % w/w and the “pTSA content by HPLC” value came to 49.5 % w/w. For the same compound, where the note is “40° C./75% RH, Initial”, the “Assay by HPLC (as free base)” value is given as 100.5 % w/w, the “Purity by HPLC” value came to 99.8 % area, the “Water contectnt by Karl Fisher” value stood at 0.41 % w/w and the “pTSA content by HPLC” value is 49.9 % w/w.
“(1r,4r)-N^1-(5-chloro-4-(5-(cyclopropylmethyl)-1-methyl-1H-pyrazol-4-yl)pyrimidin-2-yl)cyclohexane-1,4-diamine [adipate salt]”: in data set [1], the “loss upon drying at 5% RH” value stood at 0.05%, the “gain from 5 to 95% RH” value came to 1.05% and the “loss from 95 to 5% RH” value came out at 1.11%. In data set [1] (setting [6]), the hygroscopicity entry was “not hygroscopic”. In addition, in data set [2], the “pH of Solution” value amounted to 4.73.
For the compound `Cl.Cl.Cn1ncc(-c2nc(N[C@H]3CC[C@H](N)CC3)ncc2Cl)c1CC1CC1` [dihydrochloride salt, (1r,4r)-N^1-(5-chloro-4-(5-(cyclopropylmethyl)-1-methyl-1H-pyrazol-4-yl)pyrimidin-2-yl)cyclohexane-1,4-diamine dihydrochloride, reference compound], in data set [1], the “loss upon drying at 5% RH” value came out at 1.2%, the “gain from 5 to 95% RH” value was determined as 17% and the “loss from 95 to 5% RH” value is recorded as 16%. Besides, the hygroscopicity entry in data set [1] (background statement, no method given there) was “highly hygroscopic”. In data set [1] (setting [6]), the hygroscopicity result is given as “highly hygroscopic”. Also, the “pH of Solution” value in data set [2] worked out at 1.55. The “treating acute myeloid leukemia (AML)” value in data set [4] is listed as “effective”.
In the case of `Cn1ncc(-c2nc(N[C@H]3CC[C@H](N)CC3)ncc2Cl)c1CC1CC1` [the Compound, (1r,4r)-N^1-(5-chloro-4-(5-(cyclopropylmethyl)-1-methyl-1H-pyrazol-4-yl)pyrimidin-2-yl)cyclohexane-1,4-diamine], in data set [5], the “Ser 45 β-catenin phosphorylation” value is recorded as “reduces”; the “p53 and β-catenin protein expression” value is listed as “increases”. Moreover, in the data set with Myc, MDM2, and MCL1, the “expression of key cancer initiating genes, including Myc, MDM2, and MCL1” value is recorded as “significantly reduces”. Also, the CK1α inhibition result on CK1α was “inhibitor”.
